The term Tmax denotes the time at which the peak concentration occurs.

The structures appear in SMILES notation.

Assay type in all cases: in vivo
The subject of data set [1] is Aβ plaques. The data set is described as follows: Immunohistochemistry of Aβ plaques (4G8 antibody), 3×Tg mice. As to conditions: 50 mg/kg oral 7 months. The method, then: (§1) Homozygous 3×Tg mice (APP KM670/671NL (Swedish), MAPT P301L, PSEN1 M146V) were produced in Hong Kong Baptist University animal house and maintained at 23±2° C. temperature, 60±15% relative humidity with free access to food and water ad libitum.
Brain sections (30 μm) were cut on a microtome and stored at 4° C. in PBS+0.1% sodium azide. Sections were permeabilized for 10 min with cold PBS containing 0.5% Triton X-100 and blocked with 3% bovine serum albumin for 1 h at room temperature.

Data set [2] relates to 3×Tg mice. The data set is described as follows: Morris-water maze. To be noted: 50 mg/kg oral 7 months. The procedure:
Homozygous 3×Tg mice (APP KM670/671NL (Swedish), MAPT P301L, PSEN1 M146V) were produced in Hong Kong Baptist University animal house and maintained at 23±2° C. temperature, 60±15% relative humidity with free access to food and water ad libitum. Seven months old WT (129/SvJ, n=6 for male mice; n=10 for female mice) and 3×Tg mice (n=6 for male mice; n=10 for female mice) were treated daily with vehicle (1% CMC-Na; Sigma-Aldrich, C5678]), curcumin analogue C1 (2.5 mg/kg, 5 mg/kg, 10 mg/kg) or curcumin (50 mg/kg; Sigma-Aldrich, 08511) suspended in 1% CMC-Na by oral gavage for 7 months. 3×Tg mice were treated with the indicated compounds for 7 months and Morris-water maze (MWM) was used to evaluate the spatial learning memory. MWM is a circular water (21±1° C.) container with 1 meter diameter. Animals were pre-quarantined and acclimatized to the experimenting room at least 1 week before the start of the experiment. The experiment was started with one day visual platform trial. Each mouse underwent 4 visible platform trails (each trial 60 seconds) with different platform placement, positioned above the water level. Hidden platform training was conducted after mixing a non-toxic paint in the water. Mice were trained for 6 continuous days, each day composed of different session with 4 hidden platform trials (each trial 60 seconds). Each session was designed with randomized animal introduction pattern into the water maze with unchanged platform position. Each trial was conducted with 30 min inter-trial interval and provided with external cues. To assess the long term spatial memory retrieval a probe trial (60 seconds) was conducted 24 h after the last training session. During probe trial water maze was divided into 4 quadrants. The hidden platform in the target quadrant was removed after determining its location. Ethnovision XT software was used to observe and record the swimming pattern. During hidden platform training sessions, time spent to find the platform was taken as a parameter to evaluate memory acquisition. In probe trial percentage of time spent in the target quadrant compared to the other 3 quadrants was calculated.

The subject of data set [3] is APP, CTFs, phosphorylated Tau, total Tau, TFEB, LC3-II. The data set can be described thus: Western blotting of hippocampus, female 3×Tg mice. As to conditions: 50 mg/kg oral 7 months. The procedure: as §1
(§2) Brain tissues were lysed with RIPA buffer (TBS with 1% NP-40, 1% sodium deoxycholic acid, 0.1% SDS, and protease phosphatase inhibitor cocktails) and centrifuged at 15,000 RPM for 30 min. Supernatant is collected and the pellets were further lysed with 2% SDS in RIPA buffer. Protein concentration was estimated by BCA assay. […] Protein chemiluminescence signal was detected by using ECL kit and quantified using ImageJ software.

Data set [4] relates to 3×Tg mice. The data set can be described thus: Open-field test. As to conditions: 3×Tg mice, 50 mg/kg oral 7 months. The method, then: Homozygous 3×Tg mice (APP KM670/671NL (Swedish), MAPT P301L, PSEN1 M146V) were produced in Hong Kong Baptist University animal house and maintained at 23±2° C. temperature, 60±15% relative humidity with free access to food and water ad libitum. Seven months old WT (129/SvJ, n=6 for male mice; n=10 for female mice) and 3×Tg mice (n=6 for male mice; n=10 for female mice) were treated daily with vehicle (1% CMC-Na; Sigma-Aldrich, C5678]), curcumin analogue C1 (2.5 mg/kg, 5 mg/kg, 10 mg/kg) or curcumin (50 mg/kg; Sigma-Aldrich, 08511) suspended in 1% CMC-Na by oral gavage for 7 months. 3×Tg mice were treated with the indicated compounds for 7 months and then the open-field test was performed to evaluate the exploratory behavior in novel environment. The experiment was conducted 30 min after last dosing time. Mice placed in the center of an empty open field (25 cm×25 cm) were allowed to explore the environment for 5 min without any external disturbance. Ethnovision XT software was used to measure the patterns of movement, time spent in the center and margin, velocity, distance traveled as indicators of agility and exploration.

Data set [5] relates to APP, APP CTFs, Aβ, LC3-II. The data set is described as follows: Western blotting of brain tissue, 5×FAD mice. The method, then:
5×FAD male mice were inbred with wild-type (WT, C57/BL6) female mice to produce heterozygous offspring. Offspring were genotyped to select 5×FAD (APP KM670/671NL (Swedish), APP I716V (Florida), APP V717I (London), PSEN1 M146L (A>C), PSEN1 L286V) gene mutations mice.
as §2

Data set [6] deals with 5×FAD mice. The data set is described as follows: Contextual fear conditioning. To be noted: 50 mg/kg oral daily 4 months, P<0.05. The method, then:
Male 5×FAD mice were purchased from Jackson laboratories (Stock number 006554) and maintained at 23±2° C. temperature, 60±15% relative humidity with free access to food and water ad libitum. 5×FAD male mice were inbred with wild-type (WT, C57/BL6) female mice to produce heterozygous offspring. Offspring were genotyped to select 5×FAD (APP KM670/671NL (Swedish), APP I716V (Florida), APP V717I (London), PSEN1 M146L (A>C), PSEN1 L286V) gene mutations mice. Two months old WT and 5×FAD mice (male and female, n=10-14 per group) were treated daily with vehicle (1% sodium carbonyl methylcellulose [CMC-Na; Sigma-Aldrich, C5678]), curcumin analogue C1 (5 mg/kg, 10 mg/kg) or curcumin (50 mg/kg; Sigma-Aldrich, 08511) suspended in 1% CMC-Na by oral gavage for 4 months.
Contextual fear conditioning (CFC) was used to evaluate the fear memory reconsolidation of 5×FAD mice after treatment. The experiment was conducted 30 min after the drug treatment in ANY maze fear conditioning system under licensed ANY maze tracking system connected to a Windows XP computer. A digital camera was installed on each chamber and signals were sent to the computer for analysis. The experiments were conducted in two sound proof chambers. All the experiments were conducted with continuous 40 units of white noise and 40 lux white light. During training, mice were allowed to explore the platform for 2.5 min and then received 3 repeated footshock cycles (30 s) at 30 s intervals, each started with a cue tone (28 s, 1500 Hz) and ended by a footshock ([…], 2 s). On the second day the mice were allowed to explore the platform for 3 min followed by a cue tone (30 s, 1500 Hz) without footshock, and the freezing time was recorded. Contextual fear memory formation and the subsequent remote memory stabilization were evaluated by scoring freezing index (the absence of all but respiratory movement).

A short description of data set [7]: Pharmacokinetic study in mice, oral (brain and blood levels by LC/MS/MS). As to conditions: male, mouse, C57BL/6 mice, oral 10 mg/kg, brain.
Where [8] appears, read: 5×FAD mice, male and female, 50 mg/kg oral 4 months.

On to `COc1cc(/C=C/C(=O)CC(=O)/C=C/c2ccc(O)c(OC)c2)ccc1O` [curcumin, Curcumin, reference compound], for which, in data set [1], the Aβ load result is reported as “no significant reduction”. Moreover, in data set [2], the “percentage of time spent in the target quadrant, probe trial, vs vehicle” value is “significantly increased”. In data set [3], the CTFs entry is given as “no significant reduction”. In data set [3] (hippocampus), the “levels of phosphorylated Tau (PHF1, AT8)” value is recorded as “significantly decreased”. Moreover, the “improvement in the open field test” value in data set [4] was “no significant improvement”. Moreover, in data set [5] (setting [8]), the “LC3-II levels in brain (autophagy enhancement)” value was “increase in LC3-II levels”, the “levels of A3 in brain” value is recorded as “significantly reduced” and the “levels of APP CTFs in brain” value is “significantly reduced”. In data set [5] (female 5×FAD mice, oral 4 months), the “Fl-APP levels in brain” value is “reduced Fl-APP levels”. Besides, the “freezing index (memory reconsolidation) vs vehicle” value in data set [6] was “significant memory reconsolidation”. Besides, in data set [7], the Tmax is 1 h. Also, in data set [7] (read-out: maximum concentration (Cmax) in the brain), the Cmax came out at 73.77 ± 0.24 ng/g.

For the origin of these results see patent publication US10987319B2, “TFEB activator C1 ameliorates app and tau pathology and rescues cognitive deficits in neurodegenerative diseases” (Hong Kong Baptist University, priority 2018, dated 2021).
